Test results from patent US6875865B1, “Selected derivatives of K-252a” (Cephalon, Inc., priority 1996, dated 2005).

Key:
[1] = system: protein kinase C (PKC); conditions: reported in the literature; cited from earlier work
[2] = system: basal forebrain cultures; test: Basal Forebrain ChAT Activity Assay; format: cell-based, rat; conditions: day six
Method: Compounds of the invention were assessed for their ability to promote survival and increase in ChAT activity in basal forebrain cultures. ChAT activity in these cultures is a biochemical marker for the cholinergic neurons (less than 5% of the cells in culture), which represent the major cholinergic input to the hippocampal formation, olfactory nucleus, interpeduncular nucleus, cortex, amygdala, and parts of the thalamus. […] The basal forebrain was dissected from embryonic day 17 or 18 rat embryos and the cells were […] with Dispase™ (neutral protease, Collaborative Research). Neurons were plated at 5×10^4 cells/well (1.5×10^5 cells/cm^2) in wells of 96-well plates previously coated with […] and laminin. Cells were cultured in serum-free N2 medium containing 0.05% bovine serum albumin (BSA) (Bottenetein et al., supra) at 37° in a humidified atmosphere of 5% CO2/95% air. ChAT activity was measured in vitro at day six, using a modification of the Formum procedure (supra) according to McManaman et al. (supra) and Glicksman et al. (J. Neurochem. 61:210-221, 1993).
(§1) Compounds which increased ChAT activity at least 120% of the control activity are considered active.

[3] = system: dissociated spinal cord cultures; test: Spinal Cord ChAT Activity Assay; format: cell-based, rat
Method: The effect of selected ring substituted K-252a derivatives on CHAT activity was assayed in dissociated spinal cord cultures prepared from fetal rats using the procedure described in U.S. Pat. No. 5,461,146, Columns 26 and 27, Examples 6 and 7. ChAT is the enzyme that catalyzes the synthesis of the neurotransmitter acetylcholine, and it is a specific biochemical marker for cholinergic neurons. In the spinal cord, the large majority of cholinergic neurons are motor neurons. Assay of this enzyme may thus be used as an indication of the effects of a factor, or actors, on the survival of cholinergic neurons and/or regulation of this enzyme.
as §1

[4] = concentration not given, tested between 10 nM and 500 nM, at least 120% of control = active
[5] = concentration not given, at least 120% of control = active

SMILES: COC(=O)C1(O)CC2OC1(C)n1c3ccccc3c3c4c(c5c6ccccc6n2c5c31)C(=O)NC4 (stereo not drawn) [Compound K-252a, K-252a]
- inhibition of protein kinase C (PKC) [1]: strongly inhibits

SMILES: COC(=O)C1(O)CC2OC1(C)n1c3ccc(CCOC(=O)c4ccncc4)cc3c3c4c(c5c6cc(CCOC(=O)c7ccncc7)ccc6n2c5c31)C(=O)NC4 (stereo not drawn) [Compound 71]
- ChAT Activity maximum efficacy % of Control (conc) ([2]; maximum efficacy at 250 nM): 152 (250 nM) % of Control
- ChAT Activity maximum efficacy % of Control (conc) ([3]; maximum efficacy at 300 nM): 193 (300 nM) % of Control

SMILES: COC(=O)C1(O)CC2OC1(C)n1c3ccc(CCSc4ccc(O)cc4)cc3c3c4c(c5c6cc(CCSc7ccc(O)cc7)ccc6n2c5c31)C(=O)NC4 (stereo not drawn) [Compound 91]
- ChAT Activity maximum efficacy % of Control (conc) [2, 4]: <120 % of Control
- ChAT Activity maximum efficacy % of Control (conc) [3, 5]: <120 % of Control

SMILES: COC(=O)C1(O)CC2OC1(C)n1c3ccc(CCN=[N+]=[N-])cc3c3c4c(c5c6cc(CCN=[N+]=[N-])ccc6n2c5c31)C(=O)NC4 (stereo not drawn) [Compound 81]
- ChAT Activity maximum efficacy % of Control (conc) [2, 4]: <120 % of Control
- ChAT Activity maximum efficacy % of Control (conc) ([3]; maximum efficacy at 300 nM): 131 (300 nM) % of Control

SMILES: COC(=O)C1(O)CC2OC1(C)n1c3ccc(C(O)CCCl)cc3c3c4c(c5c6cc(C(O)CCCl)ccc6n2c5c31)C(=O)NC4 (stereo not drawn) [Compound 59]
- ChAT Activity maximum efficacy % of Control (conc) ([2]; maximum efficacy at 250 nM): 131 (250 nM) % of Control
- ChAT Activity maximum efficacy % of Control (conc) ([3]; maximum efficacy at 300 nM): 160 (300 nM) % of Control

SMILES: COC(=O)C1(O)CC2OC1(C)n1c3ccc(C(=O)CSc4nnnn4C)cc3c3c4c(c5c6cc(C(=O)CSc7nnnn7C)ccc6n2c5c31)C(=O)NC4 (stereo not drawn) [Compound 52]
- ChAT Activity maximum efficacy % of Control (conc) [2, 4]: <120 % of Control
- ChAT Activity maximum efficacy % of Control (conc) [3, 5]: <120 % of Control

SMILES: COC(=O)C1(O)CC2OC1(C)n1c3ccc(CCSC)cc3c3c4c(c5c6cc(CCSC)ccc6n2c5c31)C(=O)NC4 (stereo not drawn) [Compound 87]
- ChAT Activity maximum efficacy % of Control (conc) ([2]; maximum efficacy at 250 nM): 262 (250 nM) % of Control
- ChAT Activity maximum efficacy % of Control (conc) ([3]; maximum efficacy at 300 nM): 294 (300 nM) % of Control

SMILES: COCOCc1ccc2c(c1)c1c3c(c4c5ccccc5n5c4c1n2C1CC(O)(C(=O)OC)C5(C)O1)CNC3=O (stereo not drawn) [Compound 154]
- ChAT Activity maximum efficacy % of Control (conc) ([3]; maximum efficacy at 300 nM): 177 (300 nM) % of Control

SMILES: COC(=O)C1(O)CC2OC1(C)n1c3ccc(CCCSC)cc3c3c4c(c5c6cc(CCCSC)ccc6n2c5c31)C(=O)NC4 (stereo not drawn) [Compound 95]
- ChAT Activity maximum efficacy % of Control (conc) ([2]; maximum efficacy at 250 nM): 239 (250 nM) % of Control
- ChAT Activity maximum efficacy % of Control (conc) ([3]; maximum efficacy at 300 nM): 272 (300 nM) % of Control

SMILES: CCOCOCc1ccc2c(c1)c1c3c(c4c5cc(COCOCC)ccc5n5c4c1n2C1CC(O)(C(=O)OC)C5(C)O1)CNC3=O (stereo not drawn) [Compound 156]
- ChAT Activity maximum efficacy % of Control (conc) ([3]; maximum efficacy at 300 nM): 217 (300 nM) % of Control

SMILES: COC(=O)C1(O)CC2OC1(C)n1c3ccc(C#CCN(C)Cc4ccccc4)cc3c3c4c(c5c6cc(Br)ccc6n2c5c31)C(=O)NC4 (stereo not drawn) [Compound 62]
- ChAT Activity maximum efficacy % of Control (conc) ([2]; maximum efficacy at 50 nM): 202 (50 nM) % of Control
- ChAT Activity maximum efficacy % of Control (conc) ([3]; maximum efficacy at 300 nM): 235 (300 nM) % of Control

SMILES: COC(=O)C1(O)CC2OC1(C)n1c3ccccc3c3c4c(c5c6cc(C=Cc7ncc[nH]7)ccc6n2c5c31)C(=O)NC4 (stereo not drawn) [Compound 148]
- ChAT Activity maximum efficacy % of Control (conc) ([3]; maximum efficacy at 300 nM): 206 (300 nM) % of Control

SMILES: COC(=O)C1(O)CC2OC1(C)n1c3ccc(CCO)cc3c3c4c(c5c6cc(CCO)ccc6n2c5c31)C(=O)NC4 (stereo not drawn) [Compound 70c]
- ChAT Activity maximum efficacy % of Control (conc) ([2]; maximum efficacy at 250 nM): 203 (250 nM) % of Control
- ChAT Activity maximum efficacy % of Control (conc) ([3]; maximum efficacy at 300 nM): 186 (300 nM) % of Control

SMILES: CCSCc1ccc2c(c1)c1c3c(c4c5cc(C=Cc6ccccn6)ccc5n5c4c1n2C1CC(O)(C(=O)OC)C5(C)O1)CNC3=O (stereo not drawn) [Compound 118]
- ChAT Activity maximum efficacy % of Control (conc) ([3]; maximum efficacy at 30 nM): 249 (30 nM) % of Control

SMILES: COC(=O)C1(O)CC2OC1(C)n1c3ccc(CCc4ccccn4)cc3c3c4c(c5c6ccccc6n2c5c31)C(=O)NC4 (stereo not drawn) [Compound 14]
- ChAT Activity maximum efficacy % of Control (conc) ([2]; maximum efficacy at 500 nM): 229 (500 nM) % of Control
- ChAT Activity maximum efficacy % of Control (conc) ([3]; maximum efficacy at 300 nM): 282 (300 nM) % of Control

SMILES: CCSCCc1ccc2c(c1)c1c3c(c4c5cc(CCSCC)ccc5n5c4c1n2C1CC(O)(C(=O)OC)C5(C)O1)CNC3=O (stereo not drawn) [Compound 88]
- ChAT Activity maximum efficacy % of Control (conc) [2, 4]: <120 % of Control
- ChAT Activity maximum efficacy % of Control (conc) ([3]; maximum efficacy at 300 nM): 190 (300 nM) % of Control

SMILES: CCSCC(=O)c1ccc2c(c1)c1c3c(c4c5ccccc5n5c4c1n2C1(C)OC5CC1(O)C(=O)OC)C(=O)NC3 (stereo not drawn) [Compound 41]
- ChAT Activity maximum efficacy % of Control (conc) [2, 4]: <120 % of Control
- ChAT Activity maximum efficacy % of Control (conc) ([3]; maximum efficacy at 300 nM): 204 (300 nM) % of Control

SMILES: COCCC(=O)c1ccc2c(c1)c1c3c(c4c5cc(C(=O)CCOC)ccc5n5c4c1n2C1CC(O)(C(=O)OC)C5(C)O1)CNC3=O (stereo not drawn) [Compound 54]
- ChAT Activity maximum efficacy % of Control (conc) ([2]; maximum efficacy at 250 nM): 167 (250 nM) % of Control
- ChAT Activity maximum efficacy % of Control (conc) [3, 5]: <120 % of Control

SMILES: CCOC(=O)CCc1ccc2c(c1)c1c3c(c4c5cc(CCC(=O)OCC)ccc5n5c4c1n2C1CC(O)(C(=O)OC)C5(C)O1)CNC3=O (stereo not drawn) [Compound 140]
- ChAT Activity maximum efficacy % of Control (conc) ([3]; maximum efficacy at 300 nM): 156 (300 nM) % of Control

SMILES: CCC=Cc1ccc2c(c1)c1c3c(c4c5cc(C=Cc6ccccn6)ccc5n5c4c1n2C1CC(O)(C(=O)OC)C5(C)O1)CNC3=O (stereo not drawn) [Compound 122]
- ChAT Activity maximum efficacy % of Control (conc) ([3]; maximum efficacy at 300 nM): 279 (300 nM) % of Control

SMILES: COC(=O)C1(O)CC2OC1(C)n1c3ccc(CCSc4ccccn4)cc3c3c4c(c5c6cc(CCSc7ccccn7)ccc6n2c5c31)C(=O)NC4 (stereo not drawn) [Compound 94]
- ChAT Activity maximum efficacy % of Control (conc) ([2]; maximum efficacy at 250 nM): 166 (250 nM) % of Control
- ChAT Activity maximum efficacy % of Control (conc) ([3]; maximum efficacy at 300 nM): 152 (300 nM) % of Control

SMILES: CCC=Cc1ccc2c(c1)c1c3c(c4c5cc(C=CCC)ccc5n5c4c1n2C1CC(O)(C(=O)OC)C5(C)O1)CNC3=O (stereo not drawn) [Compound 68]
- ChAT Activity maximum efficacy % of Control (conc) ([2]; maximum efficacy at 250 nM): 290 (250 nM) % of Control
- ChAT Activity maximum efficacy % of Control (conc) ([3]; maximum efficacy at 300 nM): 291 (300 nM) % of Control

SMILES: COC(=O)C1(O)CC2OC1(C)n1c3ccc(CCOC=O)cc3c3c4c(c5c6cc(CCOC=O)ccc6n2c5c31)C(=O)NC4 (stereo not drawn) [Compound 70b]
- ChAT Activity maximum efficacy % of Control (conc) ([3]; maximum efficacy at 300 nM): 169 (300 nM) % of Control

SMILES: COC(=O)C1(O)CC2OC1(C)n1c3ccc(CCc4ccccn4)cc3c3c4c(c5c6cc(Br)ccc6n2c5c31)C(=O)NC4 (stereo not drawn) [Compound 143]
- ChAT Activity maximum efficacy % of Control (conc) ([3]; maximum efficacy at 300 nM): 264 (300 nM) % of Control

SMILES: COC(=O)C1(O)CC2OC1(C)n1c3ccc(C=Cc4ccccn4)cc3c3c4c(c5c6ccccc6n2c5c31)C(=O)NC4 (stereo not drawn) [Compound 13]
- ChAT Activity maximum efficacy % of Control (conc) ([2]; maximum efficacy at 100 nM): 167 (100 nM) % of Control
- ChAT Activity maximum efficacy % of Control (conc) ([3]; maximum efficacy at 30 nM): 271 (30 nM) % of Control

SMILES: CCOCc1ccc2c(c1)c1c3c(c4c5cc(C=Cc6ccccn6)ccc5n5c4c1n2C1CC(O)(C(=O)OC)C5(C)O1)CNC3=O (stereo not drawn) [Compound 117]
- ChAT Activity maximum efficacy % of Control (conc) ([3]; maximum efficacy at 30 nM): 232 (30 nM) % of Control

SMILES: CCOC(=O)C=Cc1ccc2c(c1)c1c3c(c4c5ccccc5n5c4c1n2C1(C)OC5CC1(O)C(=O)OC)C(=O)NC3 (stereo not drawn) [Compound 12]
- ChAT Activity maximum efficacy % of Control (conc) ([2]; maximum efficacy at 500 nM): 184 (500 nM) % of Control
- ChAT Activity maximum efficacy % of Control (conc) ([3]; maximum efficacy at 300 nM): 269 (300 nM) % of Control

SMILES: COC(=O)C1(O)CC2OC1(C)n1c3ccc(C=Cc4ccccn4)cc3c3c4c(c5c6cc(CSc7ccccn7)ccc6n2c5c31)C(=O)NC4 (stereo not drawn) [Compound 119]
- ChAT Activity maximum efficacy % of Control (conc) ([3]; maximum efficacy at 30 nM): 272 (30 nM) % of Control
